Measurements: patent US7465751B2 (priority 2002, dated 2008)

Legend:
M2 muscarinic receptor = M2 muscarinic receptor (Rattus norvegicus, UniProt P10980); format: binding
M3 muscarinic receptor = M3 muscarinic receptor (Rattus norvegicus, UniProt P08483); format: binding
M3 muscarinic receptor, sequence (P08483 whole entry): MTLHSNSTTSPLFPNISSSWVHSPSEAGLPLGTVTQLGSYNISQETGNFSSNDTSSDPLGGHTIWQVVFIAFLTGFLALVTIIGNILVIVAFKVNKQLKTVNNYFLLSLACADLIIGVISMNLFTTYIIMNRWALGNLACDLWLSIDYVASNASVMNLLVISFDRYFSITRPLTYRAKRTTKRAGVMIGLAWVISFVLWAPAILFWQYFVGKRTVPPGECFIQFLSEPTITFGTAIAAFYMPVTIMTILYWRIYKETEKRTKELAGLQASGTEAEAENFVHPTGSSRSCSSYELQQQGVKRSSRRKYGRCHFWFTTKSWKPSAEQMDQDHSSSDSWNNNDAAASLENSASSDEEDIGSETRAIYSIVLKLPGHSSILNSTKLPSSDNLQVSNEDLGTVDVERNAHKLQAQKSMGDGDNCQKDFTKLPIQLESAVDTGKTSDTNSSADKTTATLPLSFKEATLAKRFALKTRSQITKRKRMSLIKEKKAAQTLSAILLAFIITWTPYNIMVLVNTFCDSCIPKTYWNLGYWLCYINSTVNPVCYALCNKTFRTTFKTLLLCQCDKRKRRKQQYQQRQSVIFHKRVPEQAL

M2 muscarinic receptor, sequence (P10980 whole entry): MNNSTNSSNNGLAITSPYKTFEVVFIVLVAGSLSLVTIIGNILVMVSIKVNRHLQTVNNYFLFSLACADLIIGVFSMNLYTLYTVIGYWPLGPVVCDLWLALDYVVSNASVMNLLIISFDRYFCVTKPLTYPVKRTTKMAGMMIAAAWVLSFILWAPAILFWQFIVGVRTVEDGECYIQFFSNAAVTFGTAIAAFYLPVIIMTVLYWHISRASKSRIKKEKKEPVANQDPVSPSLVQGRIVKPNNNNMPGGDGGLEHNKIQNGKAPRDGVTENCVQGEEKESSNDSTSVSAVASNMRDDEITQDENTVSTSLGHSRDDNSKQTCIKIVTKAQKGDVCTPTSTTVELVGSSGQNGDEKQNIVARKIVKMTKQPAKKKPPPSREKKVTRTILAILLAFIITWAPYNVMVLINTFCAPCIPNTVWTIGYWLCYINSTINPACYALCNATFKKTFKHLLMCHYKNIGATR

(3S)-1-[(phenylacetyl)pyrrolidin-3-yl]cyclopentyl(hydroxy)phenyl acetate [Compound No. 11]
Receptor Binding Assay M2 PKi (M2 muscarinic receptor): <6
Receptor Binding Assay M3 pki (M3 muscarinic receptor): <6
